How the values were obtained:
Test in all cases: relative viability (nuclei count vs DMSO), 5 days (fraction); higher = more cells survive
Midostaurin = compound: CO[C@@H]1[C@H](N(C)C(=O)c2ccccc2)C[C@H]2O[C@]1(C)n1c3ccccc3c3c4c(c5c6ccccc6n2c5c31)C(=O)NC4 [Midostaurin]
Procedure, shortened: (§1)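 A plate was accepted only when its control CV was below 25% and the cells had doubled at least once. Viability is defined from nuclear counts as treated wells divided by vehicle wells, with the median taken across plates. That median covers lung cancer cell lines grown in 1536-well plates, dosed by pinning at five √10-spaced library-drug concentrations, and counted in MetaXpress from 4× Hoechst images after 5 days.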

[1] = compound: COc1cc(-c2nn([C@H]3CC[C@H](N4CCN(C(C)=O)CC4)CC3)c3ncnc(N)c23)ccc1NC(=O)c1cc2ccccc2n1C
Procedure, shortened: as §1

[2] = compound: COc1cc(-c2nn([C@H]3CC[C@H](N4CCN(C(C)=O)CC4)CC3)c3ncnc(N)c23)ccc1NC(=O)c1cc2ccccc2n1C + CC1(C)CCC(c2ccc(Cl)cc2)=C(CN2CCN(c3ccc(C(=O)NS(=O)(=O)c4ccc(N[C@H](CCN5CCOCC5)CSc5ccccc5)c(S(=O)(=O)C(F)(F)F)c4)cc3)CC2)C1 [Navitoclax] (partner 0.5 µM)
Procedure, shortened: (§2)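 Values are medians from duplicate plates. Each reflects relative viability, defined as the nuclei count of treated wells over that of vehicle wells. Lung cancer cell lines in 1536-well plates were pin-tool dosed one day after seeding with one drug alone or with a fixed anchor-drug dose plus five library-drug doses (not always all listed) in √10 steps, then fixed, stained and imaged at 4× after 5 days.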

Midostaurin + Trametinib = compound: CO[C@@H]1[C@H](N(C)C(=O)c2ccccc2)C[C@H]2O[C@]1(C)n1c3ccccc3c3c4c(c5c6ccccc6n2c5c31)C(=O)NC4 [Midostaurin] + CC(=O)Nc1cccc(-n2c(=O)n(C3CC3)c(=O)c3c(Nc4ccc(I)cc4F)n(C)c(=O)c(C)c32)c1 [Trametinib] (partner 0.02 µM)
Procedure, shortened: as §2

[3] = compound: COc1cc(-c2nn([C@H]3CC[C@H](N4CCN(C(C)=O)CC4)CC3)c3ncnc(N)c23)ccc1NC(=O)c1cc2ccccc2n1C + NC(=O)Nc1cc(-c2cccc(F)c2)sc1C(=O)N[C@H]1CCCNC1 [AZD7762] (partner 0.2 µM)
Procedure, shortened: as §2

Cell Line | relative viability (Midostaurin; 0.01 µM) | relative viability (Midostaurin; 0.03162 µM) | relative viability (Midostaurin; 0.1 µM) | relative viability (Midostaurin; 0.3162 µM) | relative viability ([1]; 0.0128 µM) | relative viability ([1]; 0.04048 µM) | relative viability ([1]; 0.128 µM) | relative viability ([1]; 1.28 µM) | relative viability ([2]; first compound 0.0128 µM) | relative viability ([2]; first compound 0.04048 µM) | relative viability ([2]; first compound 0.128 µM) | relative viability ([2]; first compound 1.28 µM) | relative viability (Midostaurin + Trametinib; first compound 0.01 µM) | relative viability (Midostaurin + Trametinib; first compound 0.03162 µM) | relative viability (Midostaurin + Trametinib; first compound 0.1 µM) | relative viability (Midostaurin + Trametinib; first compound 0.3162 µM) | relative viability ([3]; first compound 0.0128 µM) | relative viability ([3]; first compound 0.04048 µM) | relative viability ([3]; first compound 0.128 µM) | relative viability ([3]; first compound 1.28 µM)
ChaGo-K-1 | 0.919 | 1.07 | 0.932 | 1.02 | 1.03 | 0.98 | 0.891 | 0.898 | 0.958 | 1.05 | 0.881 | 0.986 | 0.949 | 0.963 | 0.806 | 0.915 | 0.829 | 0.779 | 0.818 | 0.72
PC-14 | 0.995 | 0.988 | 0.963 | 0.961 | 1.09 | 1.13 | 0.957 | 1.08 | 1.05 | 1.05 | 0.987 | 1.21 | 0.707 | 0.914 | 0.692 | 0.635 | 0.42 | 0.417 | 0.365 | 0.355
NCI-H1437 | 0.96 | 0.999 | 0.972 | 0.92 | 0.979 | 1.04 | 0.964 | 0.906 | 1.09 | 1.1 | 1.05 | 1.02 | 0.615 | 0.502 | 0.588 | 0.518 | 1.14 | 1.15 | 1.04 | 0.96
NCI-H460 | 1.04 | 1.01 | 0.997 | 1.01 | 0.977 | 0.983 | 0.907 | 0.989 | 1.2 | 1.41 | 1.03 | 0.862 | 0.176 | 0.174 | 0.116 | 0.12 | 0.618 | 0.73 | 0.603 | 0.579
NCI-H1666 | 1.03 | 0.953 | 0.992 | 0.888 | 0.98 | 0.872 | 0.947 | 0.941 | 0.883 | 0.805 | 0.806 | 0.955 | 0.823 | 0.882 | 0.711 | 0.81 | 0.821 | 0.841 | 0.802 | 0.741
NCI-H1651 | 0.95 | 1 | 1.01 | 1.09 | 0.97 | 1.07 | 0.923 | 0.968 | 1.09 | 1.07 | 1.07 | 0.963 | 0.81 | 0.804 | 0.795 | 0.949 | 0.466 | 0.457 | 0.49 | 0.397
NCI-H1755 | 0.983 | 0.983 | 0.962 | 0.977 | 1.12 | 0.983 | 0.937 | 0.938 | 1.09 | 1.01 | 0.927 | 0.803 | 0.75 | 0.811 | 0.798 | 0.72 | 0.501 | 0.344 | 0.371 | 0.417
HARA | 0.98 | 0.87 | 0.974 | 0.932 | 1.03 | 0.828 | 0.879 | 0.612 | 1.14 | 1.24 | 1.14 | 1 | 0.994 | 0.663 | 0.887 | 0.393 | 0.257 | 0.432 | 0.124 | 0.281
NCI-H596 | 0.946 | 1.01 | 1.15 | 1.17 | 1.03 | 0.95 | 0.833 | 0.836 | 1.06 | 1.02 | 0.911 | 0.525 | 0.835 | 0.847 | 0.737 | 0.999 | 1.55 | 1.15 | 1.09 | 0.851
